Measured values as given in patent US9695155B2, “Herbicidal substituted pyrimidinyloxy benzene compounds” (E. I. DU PONT DE NEMOURS AND COMPANY, priority 2013, dated 2017).

Columns and labels:
yellow nutsedge = assay: Test C postemergence; format: in vivo, Cyperus esculentus
How it was run: (§1)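 Sown in loam/sand → sprayed pre-emergence; or grown to 1–4 leaves in peat mix → sprayed post-emergence. Same solvent/surfactant formulation both ways. Greenhouse 13–15 d. Score 0–100 visual.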

wheat [1] = assay: Test A preemergence; format: in vivo, Triticum aestivum
How it was run: (§2)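 Pre- and postemergence greenhouse screen. Soil: loam + sand. Spray carrier: solvent mixture, non-phytotoxic, with surfactant. Post timing at 1–2 leaves, height 2–10 cm. Readout: visual injury on a 0–100 scale roughly 10 days after application, untreated plants as reference.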

galium = assay: Test C preemergence; format: in vivo, Galium aparine; conditions: for Galium plant response rating: preemergence
How it was run: as §1

velvetleaf = assay: Test C postemergence; format: in vivo, Abutilon theophrasti
How it was run: as §1

johnsongrass = assay: Test C postemergence; format: in vivo, Sorghum halepense
How it was run: as §1

morningglory = assay: Test A preemergence; format: in vivo, Ipomoea spp.
How it was run: as §2

wheat [2] = assay: Test A postemergence; format: in vivo, Triticum aestivum; conditions: 0 to 100 scale where 0 is no effect and 100 is complete control
How it was run: as §2

pigweed [3] = assay: Test A preemergence; format: in vivo, Amaranthus retroflexus
How it was run: as §2

giant foxtail = assay: Test C postemergence; format: in vivo, Setaria faberii
How it was run: as §1

large (Lg) crabgrass = assay: Test C postemergence; format: in vivo, Digitaria sanguinalis
How it was run: as §1

sedge, umbrella = assay: Test B flooded paddy test; format: in vivo, Cyperus difformis; conditions: Flood, 250 g ai/ha; 0 to 100 scale where 0 is no effect and 100 is complete control
How it was run: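 Greenhouse flooded-pot test: compounds dosed into 3 cm standing water over 2-leaf plants, flood held constant. Rated visually after 13–15 days on 0–100 (complete control = 100); a dash marks no test result.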

oilseed rape = assay: Test C postemergence; format: in vivo, Brassica napus
How it was run: as §1

Italian ryegrass = assay: Test C preemergence; format: in vivo, Lolium multiflorum; conditions: preemergence
How it was run: as §1

soybean = assay: Test C postemergence; format: in vivo, Glycine max
How it was run: as §1

pigweed [4] = assay: Test A postemergence; format: in vivo, Amaranthus retroflexus; conditions: 0 to 100 scale where 0 is no effect and 100 is complete control
How it was run: as §2

[5] = 16 g ai/ha, postemergence, 0 is no effect, 100 is complete control
[6] = 31 g ai/ha, postemergence, visual rating, scale 0 to 100 (0 no effect, 100 complete control), 13 to 15 days
[7] = 125 g ai/ha, postemergence, visual rating, scale 0 to 100 (0 no effect, 100 complete control)
[8] = Postemergence, 62 g ai/ha, scale 0 to 100 (0 no effect, 100 complete control)
[9] = 500 g ai/ha, 0 to 100 scale where 0 is no effect and 100 is complete control
[10] = 16 g ai/ha, scale 0 to 100 (0 no effect, 100 complete control)
[11] = 62 g ai/ha, scale 0 (no effect) to 100 (complete control)
[12] = 125 g ai/ha, scale 0 (no effect) to 100 (complete control)

FC(F)(F)c1cnn(-c2c(Cl)cccc2Oc2ncc(Cl)cn2)c1 [Compound 167]
Plant response rating (0 to 100), Nutsedge, Yellow (yellow nutsedge; [5]): 0
Nutsedge, Yellow plant response rating (yellow nutsedge; [6]): 0
Plant response rating, Nutsedge, Yellow (yellow nutsedge; [7]): 20
Plant response rating, Nutsedge, Yellow (yellow nutsedge; [8]): 5
Wheat plant response rating (0 to 100 scale) (wheat [1]; 125 g ai/ha): 0
Wheat plant response rating (wheat [1]; [9]): 50
Galium plant response rating (galium; [10]): 98
Galium plant response rating (galium; [11]): 100
Galium plant response rating (galium; [12]): 100
Plant response rating, Galium (galium; Preemergence, 31 g ai/ha, scale 0 to 100, 0 no effect, 100 complete control): 100
Plant response rating (0 to 100), Velvetleaf (velvetleaf; [5]): 35
Velvetleaf plant response rating (velvetleaf; [6]): 40
Plant response rating, Velvetleaf (velvetleaf; [7]): 70
Plant response rating, Velvetleaf (velvetleaf; [8]): 40
Plant response rating (0 to 100), Johnsongrass (johnsongrass; [5]): 5
Johnsongrass plant response rating (johnsongrass; [6]): 15
Plant response rating, Johnsongrass (johnsongrass; [7]): 25
Plant response rating, Johnsongrass (johnsongrass; [8]): 15
Morningglory plant response rating (0 to 100 scale) (morningglory; 125 g ai/ha): 90
Morningglory plant response rating (morningglory; [9]): 100
Wheat plant response rating (wheat [2]; 125 g ai/ha): 20
Plant response rating, Wheat (wheat [2]; 500 g ai/ha): 60
Pigweed plant response rating (0 to 100 scale) (pigweed [3]; 125 g ai/ha): 100
Pigweed plant response rating (pigweed [3]; [9]): 100
Plant response rating (0 to 100), Foxtail, Giant (giant foxtail; [5]): 10
Foxtail, Giant plant response rating (giant foxtail; [6]): 10
Plant response rating, Foxtail, Giant (giant foxtail; [7]): 30
Plant response rating, Foxtail, Giant (giant foxtail; [8]): 10
Plant response rating (0 to 100), Crabgrass, Large (large (Lg) crabgrass; [5]): 5
Crabgrass, Large plant response rating (large (Lg) crabgrass; [6]): 5
Plant response rating, Crabgrass, Large (large (Lg) crabgrass; [7]): 10
Plant response rating, Crabgrass, Large (large (Lg) crabgrass; [8]): 5
Plant response rating, Sedge, Umbrella (sedge, umbrella): 98
Plant response rating (0 to 100), Oilseed Rape (oilseed rape; [5]): 15
Oilseed Rape plant response rating (oilseed rape; [6]): 50
Plant response rating, Oilseed Rape (oilseed rape; [7]): 70
Plant response rating, Oilseed Rape (oilseed rape; [8]): 85
Ryegrass, Italian plant response rating (Italian ryegrass; [10]): 5
Ryegrass, Italian plant response rating (Italian ryegrass; [11]): 80
Ryegrass, Italian plant response rating (Italian ryegrass; [12]): 90
Plant response rating (0 to 100), Soybean (soybean; [5]): 20
Soybean plant response rating (soybean; [6]): 30
Plant response rating, Soybean (soybean; [7]): 60
Plant response rating, Soybean (soybean; [8]): 60
Pigweed plant response rating (pigweed [4]; 125 g ai/ha): 100
Plant response rating, Pigweed (pigweed [4]; 500 g ai/ha): 100
